Laboratory results as given in patent publication US20230104487A1, “11-(4-CHLOROPHENYL)-4-(2,3-DIHYDRO-1H-INDOLE-1-CARBONYL)-3,11-DIMETHYL-5,10,DIOXATRICYCLO[7.4.0.0,2,6,]TRIDECA-1,3,6,8-TETRAEN-13-ONE AND DERIVATIVES AS DESTABILIZER OF CRY1 FOR THE TREATMENT OF CIRCADIAN RHYTHM ASSOCIATED DISEASES AND DISORDERS” (KOC UNIVERSITESI, priority 2019, published 2023).
“Also recorded” adds a separate entry of the source.

Experiments:
C57BL/6J mice = test: Repeated dose toxicity study, 14-day subacute toxicity; type: in vivo; conditions: 60 mg/kg i.p. for 14 days
Description: According to the results of the 5-day maximum tolerated dose determination study, FORMULA I dose was determined as 60 mg/kg for the next 14-day subacute toxicity study. In this study, C57BL/6J mice (n=10) were treated with 60 mg/kg dose of FORMULA I intraperitoneally for 14 days. Control mice (n=5) were only treated with vehicle. Following this, aforementioned procedure (5-day maximum tolerated dose determination study) has been conducted in the same way.

NIH 3T3 Per2-dLuc cells = test: Real-time monitoring of circadian rhythm, NIH 3T3 Per2-dLuc; type: cell-based; conditions: dose dependent
Description: Luminescence values were recorded at 32° C. for each 30 minutes with 15 seconds integration time via Synergy H1 luminometer for a week. For LumiCycle, 400×10^3 U2-OS Bmal1-dLuc or NIH3T3 mPer2-dLuc cells were seeded to 35 mm plates and then procedure given above was followed with a change in the last step. Plates were sealed with vacuum grease and placed to LumiCycle. Each plate was recorded continuously every 10 minutes for 70 seconds at 37° C. via photomultiplier tubes. Period and amplitude data were obtained from LumiCycle Analysis software. To detect the effect of FORMULA I in the absence of CRYs, Cry1^−/−/Cry2^−/− mouse embryonic fibroblasts (CRYDKO MEFs) transiently transfected with pGL3-Per2-Luc (luciferase reporter) were used. 3×10^5 CRYDKO cells were seeded in 35 mm clear plates. Next day, cells were transfected with 4000 ng pGL3-Per2-Luc via Fugene6 transfection reagent according to the manufacturer's instruction. In short, 3:1 ratio of Fugene6 in μl against transfected DNA amount in μg was kept in transfections. 72 h after transfection cells were synchronized with DXM for two hours. Then, medium was changed with lumicycle medium having DMSO or molecule, sealed with vacuum grease, and placed to LumiCycle.

CRY2 = test: Protein immunoblot, synchronized U2-OS cells, CRY2; type: cell-based, human; conditions: 10 μM, 80-92 h
Description: FIGS. 3A-3G are an illustration of FORMULA I decreased CRY1 level in synchronized U2-OS cells. Confluent U2-OS cells were synchronized by 2 h treatment with dexamethasone ([…]) and medium replaced with fresh medium containing FORMULA I or solvent (DMSO final 0.5%). Cells were harvested at indicated time points. FIGS. 3A-3B show lysed cells were analyzed via protein immunoblot technique. […] CRY levels in DMSO control divided by that of in FORMULA I treated samples were reported (mean±SEM, n=4). FIGS. 3C-3G show cells were subjected to reverse-transcription-quantitative polymerase chain reaction (RT-qPCR). […] Expression level of genes was normalized according to the expression level of that gene at 72ndh. (Data represent the mean±SEM, n=3 with duplicates ***: p<0.001 **: p<0.005, *: p<0.05 versus DMSO control by two-way ANOVA).
Cells were lysed in RIPA buffer (50 mM Tris, 150 mM NaCl, 1% Triton-X, 0.1% SDS) with fresh Protease inhibitor cocktail (PIC). After centrifugation at 13000 rpm for 15 minutes at 4° C., supernatant was used to determine the protein amount using Pierce Protein Assay (Thermo Scientific) according to the manufacturer's instruction. Mice liver samples were homogenized and lysed with Dounce homogenizer and RIPA buffer. […] ECL buffer system (Advansta WesternBright) was used to visualize HRP chemi-luminescence via BioRad ChemiDoc Touch visualizer. […]

Cc1c(C(=O)N2CCc3ccccc32)oc2ccc3c(c12)C(=O)CC(C)(c1ccc(Cl)cc1)O3 (stereo not shown) [FORMULA I, 11-(4-chlorophenyl)-4-(2,3-dihydro-1H-indole-1-carbonyl)-3,11-dimethyl-5,10,dioxatricyclo[7.4.0.0,2,6,]trideca-1,3,6,8-tetraen-13-one]
body temperature (mild hypothermia) (C57BL/6J mice; during injections): 33.7-35.4 °C | highest mean body weight loss (C57BL/6J mice; first day following administration): 3.7% | effect on circadian rhythm (NIH 3T3 Per2-dLuc cells): exhibited similar phenotype | CRY2 protein level (CRY2): increased CRY2 levels; also recorded: increased the level of CRY2
